Test results as given in patent US9096544B2, “Therapeutic compounds” (Wayne State University, priority 2009, dated 2015).
pEC50: −log10 of the molar value.

Columns and labels:
[1] = test system: FFMA-AML cells; assay: Test B: apoptosis of FFMA-AML cells (acridine orange/ethidium bromide, nuclear fragmentation); format: cell-based, human; settings: for pEC50: Homo sapiens, nuclear fragmentation, FIG. 2A/B (96 h), read-out: ED50 of apoptosis induction
Method: FIG. 2 illustrates apoptosis induction in FFMA-AML and TF(v-SRC) cells by 3-Cl-AHPC and compound 16. Cells were seeded at 1×10^4 cells/ml, grown for 24 h and then exposed to 1 μM compound 16 or 3-Cl-AHPC A) at various concentrations of the compound for 96 h and B) for increasing times of exposure. C) Induction of apoptosis by 3-Cl-AHPC, all-trans-retinoic acid, 9-cis-retinoic acid and TTNPB in FFMA-AML and TF(v-SRC) cells. The percentage of apoptotic cells was determined using acridine orange and ethidium bromide staining to determine nuclear fragmentation as described in the general biochemical and pharmacological materials and methods. The error bars represent the mean of three separate determinations +/− the standard deviation (SD).
FFMA-AML cells were obtained from a patient with a diagnosis of AML as indicated by the immunophenotyping described in Table 1. This patient was refractory to the chemotherapy regimens consisting of cytosine arabinoside given with daunomycin as well as high-dose cytosine arabinoside. Peripheral blood samples were obtained from the patient utilizing a Wayne State University Institutional Review Board approved protocol and the leukemic blasts were isolated utilizing Ficoll hypaque. […]
(§1) Apoptosis of cells was determined by (1) acridine orange and ethidium bromide-staining to assess cells with nuclear fragmentation and chromatin condensation as previously described (Farhana L. et al., Cancer Res. 2006; 65:4909-4917) and (2) flow cytometry assessing Annexin V-FITC binding together with propidium iodide staining (Annexin V-FITC apoptosis Detection kit 1, BD Biosciences, San Diego, Calif.). Data acquisition was done on a FACS Calibur flow cytometer (BD) and analyzed with CellQuest software. […]

[2] = test system: TF(v-SRC) cells; assay: Annexin V-FITC binding by flow cytometry, TF(v-SRC) cells; format: cell-based; settings: 1 μM, varying times
Method: FIG. 3 illustrates the induction of apoptosis and cell death as assessed using Annexin V-FITC binding together with propidium iodide (PI) staining. FFMA-AML and TF(vSRC) cells were exposed to 1 μM 3-Cl-AHPC or compound 16. A) Apoptosis in FFMA-AML and TF(vSRC) cells following 24 and 48 h ARR exposure, respectively. The plots show the distribution of classes of fluorescence intensity versus cell number. The bottom left quadrant represents live cells (both annexin V-FITC and PI negative); the bottom right quadrant represents early apoptotic cells (annexin V-FITC positive but PI negative); and the top right quadrant represents late apoptotic cells (both annexin V-FITC and PI positive). B) Percentage of early apopotic Annexin V-positive cells at the indicated times. […] (p values of <0.05, <0.01 and <0.001 respectively, as determined by the t test).
as §1

[3] = test system: Capan-2 cells; assay: Test I: apoptosis of Capan-2 pancreatic cancer cells (Annexin V-FITC/PI); format: cell-based; settings: 1 μM, 48 h
Method: Pancreatic cancer cell lines (COLO357, PANC-1, Capan-2, AsPc-1 cells and MiaPaCa-2 cells obtained from American Type Culture Collection; ATCC, Rockville, Md.) were treated with 1 μM 3-Cl-AHPC and compound 16 for various times. Apoptosis in cells were analyzed by flow cytometry using Annexin V-FITC binding together with propidium iodide (PI) staining (Annexin V-FITC apoptosis Detection Kit 1, BD Biosciences, San Diego, Calif.). Data acquisition was done on a FACS Calibur flow cytometer (BD) and analyzed with CellQuest software (BD Biosciences). 3-Cl-AHPC and compound 16 mediated inhibition of cell growth were determined by 3-(4,5-dimethylthiazol-2-yl)-2,5-diphenyltetrazolium bromide (MTT) assay. The cells were seeded on 96-well plates at a density of 4×10^4 cells/well in a volume of 200 μl culture medium. 1 μM AHP3 and 3-Cl-AHPC in DMSO (final concentration 0.1%) were added to the cells for various times. […] After discarding the medium, MTT precipitates were solubilized with 200 μl DMSO and the plates read on a BioTeK Synergy HT (BioTeK Instrument Inc., Vermont) at an absorbance 570 nm. […] The spheroids were stained with acridine orange/ethidium bromide staining and immediately visualized and photographed with fluorescence microscope (OLYMPUS CKX41). […] Then spheroids were visualized and photographed with a fluorescence microscope.

SMILES | cells displaying apoptosis ([1]; FIG. 2C, retinoid values over that noted with the vehicle) [%] | pEC50 [1] | annexin V-FITC-positive cells [2] | cells in which induction of apoptosis was noted [3] [%]
O=C(O)C=Cc1ccc(-c2ccc(O)c(C34CC5CC(CC(C5)C3)C4)c2)c(Cl)c1 [Compound 3-Cl-AHPC, 4-[3-(1-adamantyl)-4-hydroxyphenyl]-3-chlorocinnamic acid, reference compound] | 80 | 6.43 | progressive increase in annexin V-FITC-positive cells with time | 50
O=C(O)/C=C/c1cnc(-c2ccc(O)c(C34CC5CC(CC(C5)C3)C4)c2)nc1 [Compound 16, (E)-3-[2-(3-(1-Adamantyl)-4-hydroxyphenyl)-5-pyrimidinyl]-2-propenoic acid] | – | 6.49 | progressive increase in annexin V-FITC-positive cells with time | 50
